Consider two molecules from EP1855705B1, “ANTIBIOTIC 107891, ITS FACTORS, PHARMACEUTICALLY ACCEPTABLE SALTS AND COMPOSITIONS, AND USE THEREOF” (Sentinella Pharmaceuticals, Inc. ("Sentinella"), priority 2005, dated 2006).

Values after ≈ are worked out from the molar mass of the structure shown.

The test system of one experiment is Enterococcus faecium. The experiment in a line: MIC, broth microdilution method (NCCLS M7-A5). In kind it is cell-based. Particulars: 568 Enterococcus faecium cl.isol. (In general: In broth dilution the organism is exposed to a series of concentrations in liquid medium.)

Broadly, the MIC is the smallest concentration in the dilution series that meets the test's criterion for growth inhibition. For the molecule `C=C1NC(=O)C(Cc2c[nH]c3ccc(Cl)cc23)NC(=O)C(NC(=O)C(=CC)NC(=O)C(N)C(C)C)CSCC(C(=O)NC2C(=O)N3CCCC3C(=O)NCC(=O)NC(C(=O)NC(C(=O)NC3CSCC4NC(=O)C(CC(N)=O)NC(=O)C(CSCC5NC(=O)C(Cc6ccccc6)NC(=O)C(CS/C=C\NC5=O)NC4=O)NC(=O)CNC(=O)CNC(=O)CNC(=O)C4C(O)C(O)CN4C3=O)C(C)O)CSC2C)NC(=O)C(CC(C)C)NC1=O` (stereo not drawn) [Factor A1], in the experiment with Staph. haemolyticus, the minimum inhibitory concentration (MIC) is recorded as 0,25 µg/ml. Consider `C=C1NC(=O)C(Cc2c[nH]c3ccc(Cl)cc23)NC(=O)C(NC(=O)C(=CC)NC(=O)C(N)C(C)C)CSCC(C(=O)NC2C(=O)N3CCCC3C(=O)NCC(=O)NC(C(=O)NC(C(=O)NC3CSCC4NC(=O)C(CC(N)=O)NC(=O)C(CSCC5NC(=O)C(Cc6ccccc6)NC(=O)C(CS/C=C\NC5=O)NC4=O)NC(=O)CNC(=O)CNC(=O)CNC(=O)C4CC(O)CN4C3=O)C(C)O)CSC2C)NC(=O)C(CC(C)C)NC1=O` (stereo not drawn) [Factor A2], for which the minimum inhibitory concentration (MIC) in the experiment with Staph. haemolyticus is 0,25 µg/ml; in the experiment with Enterococcus faecium, 2 µg/mL (≈ 0.896 µM).
